# Results as given in publication PMC5573404, “An aldo-keto reductase is responsible for Fusarium toxin-degrading activity in a soil Sphingomonas strain” (Scientific Reports, 2017).
# Tested on: AKR18A1
# Experiment: HPLC substrate decrease, Michaelis-Menten fit
# Assay type: biochemical, Sphingomonas sp. S3-4
# Settings: 45 °C
Compound,"Km (reduction of 3-oxo-DON, sodium phosphate pH 7.0, printed unit mM is doubtful, probably a misprint for μM (assays use 0.2 mM NADH))","Km (oxidation of DON, glycine-NaOH pH 10.6)"
NC(=O)C1=CN([C@@H]2O[C@H](COP(=O)(O)OP(=O)(O)OC[C@H]3O[C@@H](n4cnc5c(N)ncnc54)[C@H](O)[C@@H]3O)[C@@H](O)[C@H]2O)C=CC1 [NADH],78 ± 28 mM,–
NC(=O)c1ccc[n+]([C@@H]2O[C@H](COP(=O)(O)OP(=O)(O)OC[C@H]3O[C@@H](n4cnc5c(N)ncnc54)[C@H](OP(=O)(O)O)[C@@H]3O)[C@@H](O)[C@H]2O)c1 [NADP^+],–,0.48 ± 0.07 mM
